Experimental data: patent US7297700B2, “Bicycloheteroaryl compounds as P2X7 modulators and uses thereof” (Renovis, Inc., priority 2005, dated 2007)

test system: IL-1β release from THP-1 cells; assay: IL-1β Release Assay (Alternate Method), THP-1 cells; format: cell-based, human; details: at 0.3 μM; THP-1 cells
Procedure, shortened: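 THP-1 cells differentiated 16 h with 100 ng/mL LPS plus 100 ng/mL IFN-γ, reprimed 2 h with 100 ng/mL LPS, pretreated 30 min with compound, then challenged 45 min with 250 uM BzATP (final). Supernatant IL-1β quantified by ELISA; percent inhibition from background-adjusted levels versus untreated cells.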

Structure (SMILES)	IL-1β % inhibition
O=C(CC12CC3CC(CC(C3)C1)C2)Nc1ncnc2c1CCN(Cc1cccnc1)C2 [Compound 16]	+ (compound exhibited 0-25% inhibition at 0.3 μM)
CSc1ccc(CN2CCc3c(ncnc3NC(=O)CC34CC5CC(CC(C5)C3)C4)C2)cc1 [Compound 116]	+ (compound exhibited 0-25% inhibition at 0.3 μM)
Cc1oncc1C(=O)N1CCc2c(ncnc2NC(=O)CC23CC4CC(CC(C4)C2)C3)C1 [Compound 299]	+ (compound exhibited 0-25% inhibition at 0.3 μM)
O=C(CC12CC3CC(CC(C3)C1)C2)Nc1ncnc2c1CCN(S(=O)(=O)c1ccccc1C(F)(F)F)C2 [Compound 195]	+ (compound exhibited 0-25% inhibition at 0.3 μM)
COc1ccccc1CCC(=O)Nc1ncnc2c1CCN(CC1CCCCC1)C2 [Compound 136]	+ (compound exhibited 0-25% inhibition at 0.3 μM)
O=C(CC12CC3CC(CC(C3)C1)C2)Nc1ncnc2c1CCN(Cc1ccc(F)cc1C(F)(F)F)C2 [Compound 107]	+ (compound exhibited 0-25% inhibition at 0.3 μM)
CC(C)(C(=O)Nc1ncnc2c1CCN(S(=O)(=O)c1ccc(F)c(F)c1)C2)C12CC3CC(CC(C3)C1)C2 [Compound 355]	+ (compound exhibited 0-25% inhibition at 0.3 μM)
CC12CC3CC(C)(C1)CC(CC(=O)Nc1ncnc4c1CCN(C(=O)c1cccc(C(F)(F)F)c1)C4)(C3)C2 [Compound 383]	+ (compound exhibited 0-25% inhibition at 0.3 μM)
Cc1cccc(C(=O)N2CCc3c(ncnc3NC(=O)CC34CC5CC(C)(CC(C)(C5)C3)C4)C2)c1 [Compound 382]	++ (compound exhibited 25-50% inhibition at 0.3 μM)
O=C(CC12CC3CC(CC(C3)C1)C2)Nc1ncnc2c1CCN(Cc1cc(C(F)(F)F)ccc1F)C2 [Compound 109]	++ (compound exhibited 25-50% inhibition at 0.3 μM)
O=C(CC12CC3CC(CC(C3)C1)C2)Nc1ncnc2c1CCN(C(=O)CC1CCCC1)C2 [Compound 263]	++++ (compound exhibited 75% or greater inhibition at 0.3 μM)
O=C(CC12CC3CC(CC(C3)C1)C2)Nc1ncnc2c1CCN(C(=O)Cc1ccccc1)C2 [Compound 225]	++ (compound exhibited 25-50% inhibition at 0.3 μM)
O=C(CC12CC3CC(CC(C3)C1)C2)Nc1ncnc2c1CCN(S(=O)(=O)Cc1ccccc1)C2 [Compound 153]	++++ (compound exhibited 75% or greater inhibition at 0.3 μM)
Cc1ccc(S(=O)(=O)N2CCc3c(ncnc3NC(=O)CC34CC5CC(CC(C5)C3)C4)C2)cc1Cl [Compound 207]	+++ (compound exhibited 50-75% inhibition at 0.3 μM)
O=C(CC12CC3CC(CC(C3)C1)C2)Nc1ncnc2c1CCN(Cc1ccc3c(c1)CCO3)C2 [Compound 105]	+ (compound exhibited 0-25% inhibition at 0.3 μM)
O=C(CC12CC3CC(CC(C3)C1)C2)Nc1ncnc2c1CCN(C(=O)c1c(F)cccc1F)C2 [Compound 247]	++++ (compound exhibited 75% or greater inhibition at 0.3 μM)
CC(=O)Nc1ccc(CN2CCc3c(ncnc3NC(=O)CC34CC5CC(CC(C5)C3)C4)C2)cc1 [Compound 62]	+++ (compound exhibited 50-75% inhibition at 0.3 μM)
COc1cccc(C(=O)N2CCc3c(ncnc3NC(=O)CC34CC5CC(CC(C5)C3)C4)C2)c1 [Compound 250]	+++ (compound exhibited 50-75% inhibition at 0.3 μM)
COc1cccc(CN2CCc3c(ncnc3NC(=O)CC34CC5CC(CC(C5)C3)C4)C2)c1 [Compound 35]	+++ (compound exhibited 50-75% inhibition at 0.3 μM)
CC12CC3CC(C)(C1)CC(CC(=O)Nc1ncnc4c1CCN(C(=O)c1c(F)cccc1F)C4)(C3)C2 [Compound 387]	+ (compound exhibited 0-25% inhibition at 0.3 μM)
CCc1ccc(CN2CCc3c(ncnc3NC(=O)CC34CC5CC(CC(C5)C3)C4)C2)cc1 [Compound 45]	+ (compound exhibited 0-25% inhibition at 0.3 μM)
COc1ccc(F)cc1CN1CCc2c(ncnc2NC(=O)CC23CC4CC(CC(C4)C2)C3)C1 [Compound 102]	+ (compound exhibited 0-25% inhibition at 0.3 μM)
O=C(CC12CC3CC(CC(C3)C1)C2)Nc1ncnc2c1CCN(Cc1ccc3c(c1)Cc1ccccc1-3)C2 [Compound 318]	+ (compound exhibited 0-25% inhibition at 0.3 μM)
O=C(CC12CC3CC(CC(C3)C1)C2)Nc1ncnc2c1CCN(C(=O)C1COc3ccccc3C1)C2 (stereo not shown) [Compound 313]	++++ (compound exhibited 75% or greater inhibition at 0.3 μM)
O=C(CC12CC3CC(CC(C3)C1)C2)Nc1ncnc2c1CCN(C(=O)c1ccno1)C2 [Compound 296]	+++ (compound exhibited 50-75% inhibition at 0.3 μM)
O=C(CC12CC3CC(CC(C3)C1)C2)Nc1ncnc2c1CCN(S(=O)(=O)c1cc(Cl)cc(Cl)c1)C2 [Compound 208]	+++ (compound exhibited 50-75% inhibition at 0.3 μM)
CC(C)(C(=O)Nc1ncnc2c1CCN(Cc1ccc(F)cc1)C2)C12CC3CC(CC(C3)C1)C2 [Compound 352]	+ (compound exhibited 0-25% inhibition at 0.3 μM)
O=C(CC1CCCCC1)Nc1ncnc2c1CCN(Cc1ccccc1)C2 [Compound 9]	+ (compound exhibited 0-25% inhibition at 0.3 μM)
O=C(CC1CCCCC1)Nc1ncnc2c1CCN(CCO)C2 [Compound 22]	+ (compound exhibited 0-25% inhibition at 0.3 μM)

same assay, conditions: at 0.3 μM; THP-1 cells, BzATP-stimulated

Structure (SMILES)	IL-1β % inhibition
O=C(Nc1ncnc2c1CCN(CC1CCCC1)C2)C12CC3CC(CC(C3)C1)C2 [Compound 619]	+ (compound exhibited 0-25% inhibition at 0.3 μM)
COc1ccc(C(=O)N2CCc3c(ncnc3NC(=O)C34CC5CC(CC(C5)C3)C4)C2)cc1 [Compound 407]	+ (compound exhibited 0-25% inhibition at 0.3 μM)
N#Cc1cccc(CN2CCc3c(ncnc3NC(=O)C34CC5CC(CC(C5)C3)C4)C2)c1 [Compound 571]	++++ (compound exhibited 75% or greater inhibition at 0.3 μM)
COc1ccc(OC)c(CN2CCc3c(ncnc3NC(=O)C34CC5CC(CC(C5)C3)C4)C2)c1 [Compound 631]	+ (compound exhibited 0-25% inhibition at 0.3 μM)
O=C(Nc1ncnc2c1CCN(S(=O)(=O)Cc1ccc(C(F)(F)F)cc1)C2)C12CC3CC(CC(C3)C1)C2 [Compound 516]	++ (compound exhibited 25-50% inhibition at 0.3 μM)
COc1ccccc1CN1CCc2c(ncnc2NC(=O)C23CC4CC(CC(C4)C2)C3)C1 [Compound 615]	+++ (compound exhibited 50-75% inhibition at 0.3 μM)
O=C(C1COc2ccccc2C1)N1CCc2c(ncnc2NC(=O)C23CC4CC(CC(C4)C2)C3)C1 (racemic) [Compound 477]	++ (compound exhibited 25-50% inhibition at 0.3 μM)
O=C(Nc1ncnc2c1CCN(S(=O)(=O)c1ccc(C(F)(F)F)cc1)C2)C12CC3CC(CC(C3)C1)C2 [Compound 535]	++ (compound exhibited 25-50% inhibition at 0.3 μM)
O=C(c1c(F)cccc1F)N1CCc2c(ncnc2NC(=O)C23CC4CC(CC(C4)C2)C3)C1 [Compound 419]	+ (compound exhibited 0-25% inhibition at 0.3 μM)
O=C(Nc1ncnc2c1CCN(S(=O)(=O)c1ccc(Oc3ccccn3)cc1)C2)C12CC3CC(CC(C3)C1)C2 [Compound 506]	++++ (compound exhibited 75% or greater inhibition at 0.3 μM)
Cc1ccc(F)cc1S(=O)(=O)N1CCc2c(ncnc2NC(=O)C23CC4CC(CC(C4)C2)C3)C1 [Compound 546]	+ (compound exhibited 0-25% inhibition at 0.3 μM)
